In PubChem BioAssay AID256 (DTP/NCI, 2004) one finds T/C data, which are given here for 24 molecules.

The test system of this assay is CD2F1 mice, L1210 leukemia ip, survival T/C. Kind of assay: NCI In Vivo Anticancer Drug Screen. Data for tumor model L1210 Leukemia (intraperitoneal) in CD2F1 (CDF1) mice. The settings on record: endpoint: mean survival time, higher = longer survival. The procedure, abridged:
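Transplantable tumor in mice; compound-treated vs vehicle-treated groups. Read-out = treated/control ratio of the measured endpoint.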

[1] abbreviates: dose: 100.0 mg/kg/injection, schedule: Q01DX001 (ip), vehicle: saline.
[2] abbreviates: dose: 200.0 mg/kg/injection, schedule: Q01DX001 (ip), vehicle: saline.
Where [3] appears, read: dose: 400.0 mg/kg/injection, schedule: Q01DX001 (ip), vehicle: saline.
The mark [4] stands for this setting: dose: 100.0 mg/kg/injection, schedule: Q01DX009 (ip), vehicle: saline with Tween-80.
Where [5] appears, read: dose: 200.0 mg/kg/injection, schedule: Q01DX009 (ip), vehicle: saline with Tween-80.
Where [6] appears, read: dose: 100.0 mg/kg/injection, schedule: Q04DX003 (ip), vehicle: saline with Tween-80.
Setting [7] is: dose: 50.0 mg/kg/injection, schedule: Q01DX009 (ip), vehicle: saline with Tween-80.
Setting [8] is: dose: 25.0 mg/kg/injection, schedule: Q01DX009 (ip), vehicle: saline with Tween-80.
Setting [9] is: dose: 25.0 mg/kg/injection, schedule: Q04DX002 (ip), vehicle: saline with Tween-80.
The mark [10] stands for this setting: dose: 50.0 mg/kg/injection, schedule: Q04DX002 (ip), vehicle: saline with Tween-80.
Setting [11] is: dose: 100.0 mg/kg/injection, schedule: Q04DX002 (ip), vehicle: saline with Tween-80.
Setting [12] is: dose: 400.0 mg/kg/injection, schedule: Q04DX002 (ip), vehicle: saline with Tween-80.

“And” between values parts separate entries of the source, which are not always exact repeats. Equal values may be shown once. Toxic doses and inconclusive results are not listed.

For `Cc1nc(N)[nH]c(=O)c1Cc1ccccc1O`, the T/C under setting [1] was 100 % of control, the T/C under setting [2] is 97 % of control and the T/C under setting [3] was 97 % of control.
`Oc1c(C(c2ccccc2)N2CCCCC2)ccc2ccccc12` (configuration not stated): the T/C was 101 % of control under setting [4] and 97 % of control under setting [5].
In the case of `NC(CS(=O)(=O)O)c1ccccc1` (configuration not stated), the T/C is 110 % of control under setting [1]; 96 % of control (dose: 100.0 mg/kg/injection, schedule: Q04DX003 (ip), vehicle: saline); 110 % of control under setting [2]; 98 % of control (dose: 200.0 mg/kg/injection, schedule: Q04DX003 (ip), vehicle: saline); 110 % of control under setting [3]; 97 % of control (dose: 400.0 mg/kg/injection, schedule: Q04DX003 (ip), vehicle: saline).
With `CC(C)(O)CCC1CC1CCC(C)(C)O` (configuration not stated), the T/C runs as follows: under setting [6], 97 % of control; (dose: 200.0 mg/kg/injection, schedule: Q04DX003 (ip), vehicle: saline with Tween-80) 89 % of control; (dose: 400.0 mg/kg/injection, schedule: Q04DX003 (ip), vehicle: saline with Tween-80) 97 % of control.
On to `N=C(N)c1cc(Cl)c(OCc2ccccc2)c(Cl)c1`, for which the T/C reads like this: (dose: 25.0 mg/kg/injection, schedule: Q04DX003 (ip), vehicle: saline with Tween-80) 97 % of control; (dose: 50.0 mg/kg/injection, schedule: Q04DX003 (ip), vehicle: saline with Tween-80) 96 % of control.
With `COC1CCC2=C(C1)C(=O)CC1c3ccccc3CN21` (configuration not stated), under setting [6], the T/C is 97 % of control.
Take `C(=C\c1nnnn1C12CC3CC(CC(C3)C1)C2)/c1ccccc1`: the T/C is, setting by setting: under setting [1], 104 % of control; under setting [2], 104 % of control; under setting [3], 96 % of control.
On to `COc1ccc(-c2nc3ccc(C)cc3c(=O)o2)cc1`, for which the T/C runs as follows: under setting [7], 89 % of control; under setting [4], 93 % of control; under setting [5], 89 % of control.
`Cc1ccccc1-[n+]1nc(-c2ccccc2)nn1-c1ccccc1`: the T/C by setting is: (dose: 1.25 mg/kg/injection, schedule: Q01DX009 (ip), vehicle: saline sonified) 104 % of control; (dose: 5.0 mg/kg/injection, schedule: Q04DX003 (ip), vehicle: saline with Tween-80) 98 % of control.
Take `CCCCNC(C)(C)C(SSSC(c1ccco1)C(C)(C)NCCCC)c1ccco1` (configuration not stated): the T/C was 102 % of control (dose: 12.5 mg/kg/injection, schedule: Q01DX009 (ip), vehicle: saline with Tween-80); 96 % of control under setting [8]; 98 % of control under setting [7].
Turning to `COc1cccc(CCCC(=O)O)c1`, the T/C reads like this: (dose: 100.0 mg/kg/injection, schedule: Q04DX003 (ip), vehicle: Klucel (hydroxypropylcellulose) (HPC)) 101 % of control; (dose: 200.0 mg/kg/injection, schedule: Q04DX003 (ip), vehicle: Klucel (hydroxypropylcellulose) (HPC)) 101 % of control; (dose: 400.0 mg/kg/injection, schedule: Q04DX003 (ip), vehicle: Klucel (hydroxypropylcellulose) (HPC)) 101 % of control.
With `COc1cccc(N=C(N)N=C(N)N)c1`, the T/C (dose: 100.0 mg/kg/injection, schedule: Q01DX009 (ip), vehicle: saline) is 95 % of control and the T/C (dose: 200.0 mg/kg/injection, schedule: Q01DX009 (ip), vehicle: saline) was 90 % of control.
Regarding `COc1ccc(NC(=O)Oc2ccc(Cl)cc2Cl)cc1`, the T/C under setting [8] was 112 % of control; the T/C under setting [9] is 100 % of control; the T/C under setting [7] is 112 % of control; the T/C under setting [10] was 100 % of control; the T/C under setting [4] is 101 % of control; the T/C under setting [11] was 95 % of control and 98 % of control. Further, under setting [12], the T/C was 102 % of control.
As for `Cc1nc2c(nc1C)C(=O)C(N1CCOCC1)=CC2=O`, the T/C runs as follows: (dose: 6.25 mg/kg/injection, schedule: Q04DX003 (ip), vehicle: saline) 100 % of control; (dose: 12.5 mg/kg/injection, schedule: Q01DX001 (ip), vehicle: saline) 87 % of control; (dose: 12.5 mg/kg/injection, schedule: Q04DX003 (ip), vehicle: saline) 100 % of control; (dose: 25.0 mg/kg/injection, schedule: Q01DX001 (ip), vehicle: saline) 107 % of control; (dose: 25.0 mg/kg/injection, schedule: Q04DX003 (ip), vehicle: saline) 98 % of control; (dose: 35.0 mg/kg/injection, schedule: Q04DX003 (ip), vehicle: saline) 88 % of control. The T/C is 91 % of control (dose: 55.0 mg/kg/injection, schedule: Q04DX003 (ip), vehicle: saline) and 86 % of control (dose: 80.0 mg/kg/injection, schedule: Q04DX003 (ip), vehicle: saline).
`C=CCS(=O)[O-].[C-]#[O+].[C-]#[O+].[Fe+6].[c-]1[c-][c-][cH-][c-]1`: the T/C (dose: 12.5 mg/kg/injection, schedule: Q04DX002 (ip), vehicle: saline) is 97 % of control; the T/C (dose: 25.0 mg/kg/injection, schedule: Q04DX002 (ip), vehicle: saline) is 102 % of control; the T/C (dose: 50.0 mg/kg/injection, schedule: Q04DX002 (ip), vehicle: saline) is 100 % of control.
On to `CCN=C(N)C(N)=NCC` (tested in a mixture with another compound), for which the T/C runs as follows: under setting [9], 98 % of control; under setting [10], 98 % of control; under setting [11], 93 % of control and 98 % of control; (dose: 200.0 mg/kg/injection, schedule: Q04DX002 (ip), vehicle: saline with Tween-80) 96 % of control and 87 % of control; under setting [12], 93 % of control.
As to `CCN1CCCC(Nc2nc(Nc3cc(Cl)cc(Cl)c3)nc3ccc(Cl)cc23)C1` (configuration not stated), the T/C by setting is: under setting [8], 103 % of control; under setting [6], 90 % of control.
On to `C[n+]1c2ccccc2c(Nc2ccc(NS(=O)(=O)CCCCN=C(N)N)cc2)c2ccc(N)cc21`, for which, under “dose: 6.25 mg/kg/injection, schedule: Q01DX009 (ip), vehicle: water”, the T/C was 314 % of control.
As to `CO[C@@H](C=O)O[C@@H](C=O)CO`, the T/C runs as follows: (dose: 70.0 mg/kg/injection, schedule: Q01DX001 (ip), vehicle: saline) 121 % of control; (dose: 140.0 mg/kg/injection, schedule: Q01DX001 (ip), vehicle: saline) 121 % of control.
As for `C1=CC2CC3(OCCO3)C2C1` (configuration not stated), the T/C runs as follows: under setting [4], 98 % of control; under setting [5], 98 % of control.
Take `O=C(O)CCCCSc1ncnc2nc[nH]c12`: the T/C under setting [4] was 90 % of control; the T/C under setting [5] was 95 % of control; the T/C (dose: 400.0 mg/kg/injection, schedule: Q01DX009 (ip), vehicle: saline with Tween-80) is 102 % of control.
On to `CCCCCCCCCCCCCCCCCCCCc1ccccc1`, for which the T/C was 97 % of control (dose: 100.0 mg/kg/injection, schedule: Q04DX002 (ip), vehicle: Klucel (hydroxypropylcellulose) (HPC)); 94 % of control (dose: 200.0 mg/kg/injection, schedule: Q04DX002 (ip), vehicle: Klucel (hydroxypropylcellulose) (HPC)); 90 % of control (dose: 400.0 mg/kg/injection, schedule: Q04DX002 (ip), vehicle: Klucel (hydroxypropylcellulose) (HPC)).
`CCCCCCCCCCCC[NH-].CCCCCCCCCCCC[NH-].[Cl][Pt+2][Cl]`: the T/C is 111 % of control (dose: 6.25 mg/kg/injection, schedule: Q04DX003 (ip), vehicle: saline + alcohol); 95 % of control (dose: 12.5 mg/kg/injection, schedule: Q04DX003 (ip), vehicle: saline + alcohol); 100 % of control (dose: 25.0 mg/kg/injection, schedule: Q04DX003 (ip), vehicle: saline + alcohol); 103 % of control (dose: 50.0 mg/kg/injection, schedule: Q04DX003 (ip), vehicle: saline + alcohol); 100 % of control (dose: 100.0 mg/kg/injection, schedule: Q04DX003 (ip), vehicle: saline + alcohol).
In the case of `NCCSC1(O)C(=O)c2ccccc2C1=O`, the T/C was 109 % of control (dose: 37.5 mg/kg/injection, schedule: Q01DX009 (ip), vehicle: saline); 109 % of control (dose: 75.0 mg/kg/injection, schedule: Q01DX009 (ip), vehicle: saline); 89 % of control (dose: 150.0 mg/kg/injection, schedule: Q01DX009 (ip), vehicle: saline).
